The results in this text go back to patent publication US9682961B2, “Quinazoline derivative” (CARNA BIOSCIENCES, INC., priority 2013, dated 2017).

Assay [1] has as its system c-MYC gene expression. Nature of the assay: Expression level of Wnt/β-catenin target gene c-MYC by real-time PCR in HCT116 cells. It counts as cell-based, human. The conditions noted are these: 10 and 3 μM, 24 hours. The procedure: Effects of the compound of the present invention on Wnt/β-catenin signaling activity were studied using the real-time PCR method as well as using as an indicator changes in expression levels of target genes of the Wnt/β-catenin signaling pathway. To a RPMI 1640 medium (NACALAI TESQUE, INC.), 10% FBS (AusGeneX PTY LTD.) and 1% Penicillin/Streptomycin (NACALAI TESQUE, INC.) were added to prepare a cell culture medium (hereinafter referred to as medium 1). In a T75 flask, HCT116 cells (ATCC No. CCL-247) were added to the medium 1. The cells in the flask were cultured in the 5% CO2 incubator. The cultured HCT116 cells were diluted with the medium 1 so as to have a cell concentration of 1.1×10^5 cells/mL. Into the T75 flask, 13.5 mL of the diluted cells was seeded, followed by culturing overnight in the 5% CO2 incubator. […] Total RNA concentration was measured by a microspectrophotometer (Thermo Fisher Scientific Inc., Nano Drop ND-1000). […] The results were calculated as the expression ratio of the target gene to the endogenous control gene (β-Actin) by the comparative Ct method using a DMSO group as a reference.
On the technique in general: In qPCR the cycle at which signal appears reflects the starting amount.

Assay [2] relates to Wnt/β-catenin signaling pathway. Nature of the assay: TCF-luciferase reporter gene assay (Wnt-3a stimulated HEK 293 cells). The note with it: Homo sapiens, HEK293, Wnt-3a stimulation, read-out: Inhibitory activity against the Wnt/β-catenin signaling pathway. It counts as cell-based. The method, then:
Evaluation of inhibitory activity of the compounds of the present invention against the Wnt/β-catenin signaling pathway was performed by evaluating the inhibitory activity of the compounds of the present invention against the Wnt/β-catenin signaling pathway activated by the Wnt-3a ligand using a commercially available TCF-luciferase reporter gene assay system.
In a T75 flask, HEK 293 cells (ATCC No. CRL-1573) were added to a DMEM medium (manufactured by NACALAI TESQUE, INC., No. 08459-35) supplemented with 10% FBS (AusGeneX PTY LTD.) and 1% Penicillin/Streptomycin (NACALAI TESQUE, INC.). The cells in the flask were cultured in a 5% CO2 incubator.
The cultured HEK 293 cells were diluted with a DMEM medium supplemented with only 10% FBS so as to have a cell concentration of 2×10^5 cells/mL, and 100 μL each of the diluted cells were seeded into respective wells of 96-well plates (PerkinElmer Inc., ViewPlate No. 6005181), followed by culturing overnight in the 5% CO2 incubator. To an OptiMEM medium (Invitrogen® No. 11058), pGL4.49 [luc2p/TCF-LEF-RE/Hygro] plasmid DNA (Promega Corporation) and FuGENE® HD (Promega No. E2691) were added so as to have concentrations of 1 μg/mL and 3 μg/mL, respectively, to prepare a transfection solution as described in the protocol attached to the reagent. To the respective wells containing the HEK 293 cells cultured overnight, 100 μL each of the transfection solution was added gently, followed by culturing overnight in the 5% CO2 incubator to perform transfection.
To a DMEM medium, 0.5% charcoal/dextran treated Fetal Bovine Serum (Thermo Scientific No. SH30068.02) and LiCl (Sigma-Aldrich No. L9650) were added to prepare a LiCl-containing medium (final concentration of LiCl: 10 mM). The medium in the respective wells of the HEK 293 cells cultured overnight and transfected with a reporter gene was removed by decantation. The LiCl-containing medium (90 μL) was added gently to each well, followed by culturing overnight in the 5% CO2 incubator.
A DMSO stock solution of the compound to be tested was diluted 100-fold with a LiCl-containing medium so as to prepare a solution of the compound to be tested, which is 10 times the test concentration. Further, Recombinant Mouse Wnt-3a (R&D Systems, Inc. #1324-WN) was dissolved in a 0.1% BSA-PBA solution so as to have a concentration of 40 μg/mL, and the resultant solution was diluted with a LiCl-containing medium so as to have a concentration of 100 ng/mL, to prepare a Wnt-3a solution. To each well of the HEK 293 cells cultured overnight in the LiCl-containing medium, 10 μL each of the solution of the compound to be tested was added, followed by culturing in the 5% CO2 incubator for 2 hours (the final concentration of the compound to be tested: 3-0.03 μM). Thereafter, 10 μL each of the Wnt-3a solution was added to the respective wells, followed by further culturing for 5 hours.
Using ONE-Glo™ Luciferase Assay System (Promega Corporation, No. E6110), the luciferase activity of the cells in the wells was measured by a microplate reader (Synergy H1, BioTek Instruments, Inc.) An IC50 value was calculated from the luminescence intensity of each compound concentration, supposing that the luminescence intensity of a group with no addition of the compound and with Wnt-3a stimulation was 100%, and that the luminescence intensity of a group with no addition of the compound and with no Wnt-3a stimulation was 0%.

`O[C@H]1CC[C@@H](Oc2cccc3cnc(Nc4ccc5nc[nH]c5c4)nc23)CC1` [Example 1, cis-4-({2-[(1H-benzo[d]imidazol-6-yl)amino]quinazolyn-8-yl}oxy)cyclohexanol]: the c-MYC gene expression result in assay [1] is “inhibited the expression of AXIN2 and c-MYC”. The IC50 in assay [2] was below 300 nM.
